# Species: Rattus norvegicus
# Assay: DrugMatrix - Regimen: Daily Repeat
# Type: toxicity, organism-based, Sprague-Dawley
# Parameters: regimen Daily Repeat, gender Male, age 6-8 weeks
# Settings: in vivo, po, route oral GAVAGE, […]; for ABSOLUTE BASOPHIL / ABSOLUTE EOSINOPHIL / ABSOLUTE LYMPHOCYTE / ABSOLUTE MONOCYTE / ABSOLUTE SEGMENTED NEUTROPHIL / BASOPHIL / EOSINOPHIL / ERYTHROCYTE COUNT / HEMATOCRIT / HEMOGLOBIN / LEUKOCYTE COUNT / LYMPHOCYTE / MEAN CORPUSCULAR HEMOGLOBIN / MEAN CORPUSCULAR HEMOGLOBIN CONCENTRATION / MEAN CORPUSCULAR VOLUME / MONOCYTE / NEUTROPHIL / NUCLEATED RED BLOOD CELLS / PLATELET COUNT: tissue Blood; for ALANINE AMINOTRANSFERASE / ALBUMIN / ALKALINE PHOSPHATASE / ASPARTATE AMINOTRANSFERASE / BLOOD UREA NITROGEN / CARBON DIOXIDE / CHLORIDE / CHOLESTEROL / CREATINE PHOSPHOKINASE / CREATININE / GLUCOSE / LACTATE DEHYDROGENASE / LIPASE / PHOSPHORUS / POTASSIUM / SODIUM / TOTAL BILIRUBIN / TOTAL PROTEIN / URIC ACID: tissue Plasma
# [1] = 2000 mg/kg, 72 h, dose level High, time 3 day
# [2] = 2000 mg/kg, 120 h, dose level High, time 5 day
# [3] = 72 h, dose 0.33 mg/Kg, dose level Low, time 3 day
# [4] = 120 h, dose 0.33 mg/Kg, dose level Low, time 5 day
compound,measurement,setting,value
COc1ccc2[nH]cc(CCNC(C)=O)c2c1 [MELATONIN],ABSOLUTE BASOPHIL,[1],0 CELLS/uL
same,ABSOLUTE EOSINOPHIL,[1],23.67 CELLS/uL
same,ABSOLUTE LYMPHOCYTE,[1],9249.33 CELLS/uL
same,ABSOLUTE MONOCYTE,[1],250.67 CELLS/uL
same,ABSOLUTE SEGMENTED NEUTROPHIL,[1],1876.33 CELLS/uL
same,BASOPHIL,[1],0%
same,EOSINOPHIL,[1],0.33%
same,ERYTHROCYTE COUNT,[1],5.38 x10E6/uL
same,HEMATOCRIT,[1],32.93%
same,HEMOGLOBIN,[1],13.5 G/DL
same,LEUKOCYTE COUNT,[1],11.4 x10E3/uL
same,LYMPHOCYTE,[1],82.33%
same,MEAN CORPUSCULAR HEMOGLOBIN,[1],25.17 pg
same,MEAN CORPUSCULAR HEMOGLOBIN CONCENTRATION,[1],41.03 G/DL
same,MEAN CORPUSCULAR VOLUME,[1],61.27 fL
same,MONOCYTE,[1],2%
same,NEUTROPHIL,[1],15.33%
same,NUCLEATED RED BLOOD CELLS,[1],0 /100WBC
same,PLATELET COUNT,[1],1209.67 x10E3/uL
same,ALANINE AMINOTRANSFERASE,[1],115 u/L
same,ALBUMIN,[1],3.3 G/DL
same,ALKALINE PHOSPHATASE,[1],505.67 u/L
same,ASPARTATE AMINOTRANSFERASE,[1],128.33 u/L
same,BLOOD UREA NITROGEN,[1],15 mg/dL
same,CARBON DIOXIDE,[1],25.67 mmol/L
same,CHLORIDE,[1],100.33 MEQ/L
same,CHOLESTEROL,[1],84 mg/dL
same,CREATINE PHOSPHOKINASE,[1],757.33 u/L
same,CREATININE,[1],0.38 mg/dL
same,GLUCOSE,[1],155 mg/dL
same,LACTATE DEHYDROGENASE,[1],369.33 u/L
same,LIPASE,[1],11.67 u/L
same,PHOSPHORUS,[1],13.07 mg/dL
same,POTASSIUM,[1],6.08 MEQ/L
same,SODIUM,[1],140.4 MEQ/L
same,TOTAL BILIRUBIN,[1],0.5 mg/dL
same,TOTAL PROTEIN,[1],4.6 G/DL
same,URIC ACID,[1],1.43 mg/dL
same,ABSOLUTE BASOPHIL,[2],0 CELLS/uL
same,ABSOLUTE EOSINOPHIL,[2],0 CELLS/uL
same,ABSOLUTE LYMPHOCYTE,[2],18071 CELLS/uL
same,ABSOLUTE MONOCYTE,[2],251 CELLS/uL
same,ABSOLUTE SEGMENTED NEUTROPHIL,[2],1211.33 CELLS/uL
same,BASOPHIL,[2],0%
same,EOSINOPHIL,[2],0%
same,ERYTHROCYTE COUNT,[2],6.07 x10E6/uL
same,HEMATOCRIT,[2],38.13%
same,HEMOGLOBIN,[2],15.13 G/DL
same,LEUKOCYTE COUNT,[2],19.53 x10E3/uL
same,LYMPHOCYTE,[2],92.67%
same,MEAN CORPUSCULAR HEMOGLOBIN,[2],24.9 pg
same,MEAN CORPUSCULAR HEMOGLOBIN CONCENTRATION,[2],39.7 G/DL
same,MEAN CORPUSCULAR VOLUME,[2],62.77 fL
same,MONOCYTE,[2],1.33%
same,NEUTROPHIL,[2],6%
same,NUCLEATED RED BLOOD CELLS,[2],0 /100WBC
same,PLATELET COUNT,[2],1278.33 x10E3/uL
same,ALANINE AMINOTRANSFERASE,[2],124.67 u/L
same,ALBUMIN,[2],3.73 G/DL
same,ALKALINE PHOSPHATASE,[2],553.33 u/L
same,ASPARTATE AMINOTRANSFERASE,[2],154.67 u/L
same,BLOOD UREA NITROGEN,[2],19 mg/dL
same,CARBON DIOXIDE,[2],32 mmol/L
same,CHLORIDE,[2],100.33 MEQ/L
same,CHOLESTEROL,[2],99 mg/dL
same,CREATINE PHOSPHOKINASE,[2],788.67 u/L
same,CREATININE,[2],0.24 mg/dL
same,GLUCOSE,[2],136 mg/dL
same,LACTATE DEHYDROGENASE,[2],320.67 u/L
same,LIPASE,[2],12.33 u/L
same,PHOSPHORUS,[2],11.03 mg/dL
same,POTASSIUM,[2],6.53 MEQ/L
same,SODIUM,[2],142.13 MEQ/L
same,TOTAL BILIRUBIN,[2],0.4 mg/dL
same,TOTAL PROTEIN,[2],5.07 G/DL
same,URIC ACID,[2],1.2 mg/dL
same,ABSOLUTE BASOPHIL,[3],0 CELLS/uL
same,ABSOLUTE EOSINOPHIL,[3],0 CELLS/uL
same,ABSOLUTE LYMPHOCYTE,[3],12175.67 CELLS/uL
same,ABSOLUTE MONOCYTE,[3],180.67 CELLS/uL
same,ABSOLUTE SEGMENTED NEUTROPHIL,[3],1643.67 CELLS/uL
same,BASOPHIL,[3],0%
same,EOSINOPHIL,[3],0%
same,ERYTHROCYTE COUNT,[3],5.39 x10E6/uL
same,HEMATOCRIT,[3],34.47%
same,HEMOGLOBIN,[3],13.5 G/DL
same,LEUKOCYTE COUNT,[3],14 x10E3/uL
same,LYMPHOCYTE,[3],87.33%
same,MEAN CORPUSCULAR HEMOGLOBIN,[3],25.1 pg
same,MEAN CORPUSCULAR HEMOGLOBIN CONCENTRATION,[3],39.17 G/DL
same,MEAN CORPUSCULAR VOLUME,[3],64.03 fL
same,MONOCYTE,[3],1.33%
same,NEUTROPHIL,[3],11.33%
same,NUCLEATED RED BLOOD CELLS,[3],0 /100WBC
same,PLATELET COUNT,[3],1125.33 x10E3/uL
same,ALANINE AMINOTRANSFERASE,[3],65 u/L
same,ALBUMIN,[3],4 G/DL
same,ALKALINE PHOSPHATASE,[3],447.33 u/L
same,ASPARTATE AMINOTRANSFERASE,[3],76.67 u/L
same,BLOOD UREA NITROGEN,[3],13.33 mg/dL
same,CARBON DIOXIDE,[3],31 mmol/L
same,CHLORIDE,[3],102 MEQ/L
same,CHOLESTEROL,[3],74.33 mg/dL
same,CREATINE PHOSPHOKINASE,[3],191.33 u/L
same,CREATININE,[3],0.26 mg/dL
same,GLUCOSE,[3],163.33 mg/dL
same,LACTATE DEHYDROGENASE,[3],156.67 u/L
same,LIPASE,[3],10.33 u/L
same,PHOSPHORUS,[3],11.6 mg/dL
same,POTASSIUM,[3],6.23 MEQ/L
same,SODIUM,[3],142.1 MEQ/L
same,TOTAL BILIRUBIN,[3],0.2 mg/dL
same,TOTAL PROTEIN,[3],5.03 G/DL
same,URIC ACID,[3],1.47 mg/dL
same,ABSOLUTE BASOPHIL,[4],0 CELLS/uL
same,ABSOLUTE EOSINOPHIL,[4],0 CELLS/uL
same,ABSOLUTE LYMPHOCYTE,[4],12476.67 CELLS/uL
same,ABSOLUTE MONOCYTE,[4],229.67 CELLS/uL
same,ABSOLUTE SEGMENTED NEUTROPHIL,[4],1393.67 CELLS/uL
same,BASOPHIL,[4],0%
same,EOSINOPHIL,[4],0%
same,ERYTHROCYTE COUNT,[4],5.39 x10E6/uL
same,HEMATOCRIT,[4],32.43%
same,HEMOGLOBIN,[4],13.13 G/DL
same,LEUKOCYTE COUNT,[4],14.1 x10E3/uL
same,LYMPHOCYTE,[4],88.33%
same,MEAN CORPUSCULAR HEMOGLOBIN,[4],24.4 pg
same,MEAN CORPUSCULAR HEMOGLOBIN CONCENTRATION,[4],40.53 G/DL
same,MEAN CORPUSCULAR VOLUME,[4],60.23 fL
same,MONOCYTE,[4],1.67%
same,NEUTROPHIL,[4],10%
same,NUCLEATED RED BLOOD CELLS,[4],0 /100WBC
same,PLATELET COUNT,[4],1131.67 x10E3/uL
same,ALANINE AMINOTRANSFERASE,[4],56.33 u/L
same,ALBUMIN,[4],4.1 G/DL
same,ALKALINE PHOSPHATASE,[4],363.67 u/L
same,ASPARTATE AMINOTRANSFERASE,[4],76 u/L
same,BLOOD UREA NITROGEN,[4],16 mg/dL
same,CARBON DIOXIDE,[4],30 mmol/L
same,CHLORIDE,[4],102 MEQ/L
same,CHOLESTEROL,[4],64 mg/dL
same,CREATINE PHOSPHOKINASE,[4],170.33 u/L
same,CREATININE,[4],0.24 mg/dL
same,GLUCOSE,[4],163 mg/dL
same,LACTATE DEHYDROGENASE,[4],89.33 u/L
same,LIPASE,[4],10.67 u/L
same,PHOSPHORUS,[4],10.7 mg/dL
same,POTASSIUM,[4],5.96 MEQ/L
same,SODIUM,[4],142.07 MEQ/L
same,TOTAL BILIRUBIN,[4],0.17 mg/dL
same,TOTAL PROTEIN,[4],5.53 G/DL
same,URIC ACID,[4],1.3 mg/dL
